Assay results as given in patent publication US10993439B2, “Mesoionic imidazopyridines as insecticides” (BAYER AKTIENGESELLSCHAFT, priority 2017, dated 2021).

How the values were obtained:
[1] = log P by HPLC on reversed-phase column (EEC directive 79/831 Annex V.A8); format: physicochemical; conditions: reversed-phase column (C18), 43° C., calibration with unbranched alkan-2-ones
Method: The log P values reported in the tables and preparation examples above were determined in accordance with EEC directive 79/831 Annex V.A8 by HPLC (High Performance Liquid Chromatography) using a reversed-phase column (C18). Temperature 43° C. The calibration is effected with unbranched alkan-2-ones (having 3 to 16 carbon atoms), for which the log P values are known.

Myzus persicae [2] = assay: Myzus persicae oral test; format: in vivo; conditions: application rate 4 ppm; mixed population of green peach aphid; after 5 days
Method: Solvent: 100 parts by weight of acetone
The plates are then sealed with parafilm which can be pierced by a mixed population of the green peach aphid (Myzus persicae) located in a second microtiter plate in order to take up the solution.
(§1) After 5 days, the efficacy in % is determined. 100% means that all the aphids have been killed; 0% means that none of the aphids have been killed.

Ctenocephalides felis = Ctenocephalides felis in vitro contact test with adult cat fleas; format: in vivo; conditions: application rate 5 μg/cm^2 (=500 g of ai/ha), after 48 h
Method: For the coating of the test tubes, 9 mg of active compound are first dissolved in 1 ml of acetone p.a. and then diluted to the desired concentration with acetone p.a. 250 μl of the solution are distributed homogeneously on the inner walls and the base of a 25 ml test tube by turning and rocking on an orbital shaker (rocking rotation at 30 rpm for 2 h). With 900 ppm active compound solution and internal surface 44.7 cm^2, given homogeneous distribution, an area-based dose of 5 μg/cm^2 is achieved.
After the solvent has evaporated off, the tubes are populated with 5-10 adult cat fleas (Ctenocephalides felis), sealed with a perforated plastic lid and incubated in a horizontal position at room temperature and ambient humidity. After 48 h, efficacy is determined. To this end, the tubes are stood upright and the fleas are knocked to the base of the tube. Fleas which remain motionless at the base or are moved in an uncoordinated manner are considered to be dead or moribund.
100% efficacy means that all the fleas were dead or moribund. 0% efficacy means that no fleas were harmed.

Myzus persicae [3] = assay: Myzus persicae spray test; format: in vivo; conditions: application rate 500 g/ha; Chinese cabbage leaf discs, all stages of green peach aphid; after 5 days
Method: (§2) Solvents: 78 parts by weight of acetone • • 1.5 parts by weight of dimethylformamide
(§3) Emulsifier: alkylaryl polyglycol ether
(§4) To produce a suitable preparation of active compound, 1 part by weight of active compound is dissolved using the stated parts by weight of solvent and made up with water containing an emulsifier concentration of 1000 ppm until the desired concentration is attained. To produce further test concentrations, the preparation is diluted with emulsifier-containing water.
Discs of Chinese cabbage leaves (Brassica pekinensis) infested by all stages of the green peach aphid (Myzus persicae) are sprayed with an active compound preparation of the desired concentration.
as §1

Diabrotica balteata = Diabrotica balteata spray test; format: in vivo; conditions: application rate 160 μg/well; beetle larvae on germinated wheat grains; after 7 days
Method: as §2, §3, §4
Preswollen wheat grains (Triticum aestivum) are incubated in a multiwell plate filled with agar and a little water for one day (5 seed grains per well). The germinated wheat grains are sprayed with an active compound preparation of the desired concentration. Subsequently, each well is infested with 10-20 Diabrotica balteata beetle larvae.
After 7 days, the efficacy in % is determined. 100% means that all wheat plants have grown as in the untreated non-infested control; 0% means that no wheat plant has grown.

SMILES | chromatographic logP [1] | further results
COC(=O)c1c([O-])n(CC(F)(F)F)c2cccc[n+]12 [3-methoxycarbonyl-1-(2,2,2-trifluoroethyl)imidazo[1,2-a]pyridin-4-ium-2-olate] | 1.01 | –
N#CCCn1c([O-])c(C(=O)c2cccc(C(F)(F)F)c2)[n+]2ccccc12 [I-004, 1-(2-Cyanoethyl)-3-[3-(trifluoromethyl)benzoyl]imidazo[1,2-a]pyridin-4-ium-2-olate] | 1.35 | efficacy (aphids killed) (Myzus persicae [2]): 100%
N#CCCn1c([O-])c(C(=O)Nc2c(Cl)cccc2Cl)[n+]2ccccc12 [I-016, 1-(2-Cyanoethyl)-3-[(2,6-dichlorophenyl)carbamoyl]imidazo[1,2-a]pyridin-4-ium-2-olate] | 1.81 | efficacy (fleas dead or moribund) (Ctenocephalides felis): 100%; efficacy (aphids killed) (Myzus persicae [3]): 100%
O=C(c1c([O-])n(CC(F)(F)F)c2cccc[n+]12)C(F)(F)F [I-047, 3-(2,2,2-trifluoroacetyl)-1-(2,2,2-trifluoroethyl)imidazo[1,2-a]pyridin-4-ium-2-olate] | 1.79 | efficacy (fleas dead or moribund) (Ctenocephalides felis): 80%; efficacy (wheat plants grown as in untreated non-infested control) (Diabrotica balteata): 100%
COC(=O)C(=O)c1c([O-])n(CC(F)(F)F)c2cccc[n+]12 [I-051, 3-(2-Methoxy-2-oxoacetyl)-1-(2,2,2-trifluoroethyl)imidazo[1,2-a]pyridin-4-ium-2-olate] | 1.18 | efficacy (aphids killed) (Myzus persicae [2]): 100%
CC1(OC(=O)C(=O)c2c([O-])n(CCC#N)c3cccc[n+]23)CC1 [I-089, 1-(2-Cyanoethyl)-3-[2-(1-methylcyclopropoxy)-2-oxo-acetyl]imidazo[1,2-a]pyridin-4-ium-2-olate] | 1.33 | efficacy (aphids killed) (Myzus persicae [3]): 90%
CO/N=C/C(=O)c1c([O-])n(CCC#N)c2cccc[n+]12 [I-094, 1-(2-Cyanoethyl)-3-[(2E)-2-methoxyiminoacetyl]imidazo[1,2-a]pyridin-4-ium-2-olate] | 0.73 | efficacy (aphids killed) (Myzus persicae [2]): 100%

Continued, in another order:

chromatographic logP [1] | SMILES | further results
0.39 | COC(=O)c1c([O-])n(CCC#N)c2cccc[n+]12 [1-(2-cyanoethyl)-3-methoxycarbonylimidazo[1,2-a]pyridin-4-ium-2-olate] | –
1.35 | Cc1ccc[n+]2c(C(=O)C(F)(F)F)c([O-])n(CCC#N)c12 [I-027, 1-(2-Cyanoethyl)-8-methyl-3-(2,2,2-trifluoroacetyl)imidazo[1,2-a]pyridin-4-ium-2-olate] | –
0.8 | N#CCCn1c([O-])c(C(=O)CCl)[n+]2ccccc12 [I-084, 3-(2-Chloroacetyl)-1-(2-cyanoethyl)imidazo[1,2-a]pyridin-4-ium-2-olate] | –
0.8 | Cc1ccc[n+]2c(C(=O)CCl)c([O-])n(CCC#N)c12 [I-095, 3-(2-Chloroacetyl)-1-(2-cyanoethyl)-8-methyl-imidazo[1,2-a]pyridin-4-ium-2-olate] | –
